Read-outs that look alike come from different tables or passages of the source.
Experiments:
[1] = tested on: LLC tumor; test: LLC tumor brei model; type: in vivo
[2] = tested on: CT26 colon carcinoma; test: CT26 allograft model of mouse colon cancer; type: in vivo; settings: FIG. 28
Procedure: CT26 is an N-nitroso-N-methylurethane-(NNMU) induced, undifferentiated colon carcinoma cell line. It was cloned to generate the cell line designated CT26.WT […] number CRL-2638). 5-6 week old female, Balb/c mice (Jackson Labs) were implanted subcutaneously with 5×10^5 CT26 cells in 200 μl PBS. CT26 cells were cultured in DMEM supplemented with 10% FBS.

[3] = Hepatocyte stability (Hep t1/2); type: in vitro ADME; settings: hepatocytes, all species (incl rat); read-out: M, C, D, H Hep (t1/2, min)
[4] = tested on: differentiation of myeloid cells into M2 TAMs; test: Murine M2 TAM differentiation (ARG1 levels); type: cell-based, mouse; settings: FIG. 22A/22B
Excerpt: High ARG1 (Arginase-1) levels indicate that myeloid cells are differentiating into M2 macrophages, so lower ARG1 levels relative to a control indicate interference with differentiation into M2 macrophages. Expression of Arginase-1 depletes the tumor microenvironment of arginine, thereby promoting T cell death and NK cell inhibition. Schmid et. al., Proceedings: AACR 103rd Annual Meeting 2012, Cancer Research: Apr. 15, 2012; Volume 72, Issue 8, Supplement 1. […] M2 TAMs promote cancer cell survival (FIG. 23).
M2 macrophages can be produced as follows. Sacrifice mouse and collect femur and tibias Immerse the bones on a petri dish in 70% ethanol for 1-2 min, then remove the bones and let the ethanol dry off for 3-4 min. Cut off a very small portion of the end of the bones to make an easy access for needle insert. Using a 27 g needle filled will media containing DMEM+10% FBS+1% Pen/Strep (complete DMEM), expel the bone marrow from both ends of the bones into a 15 ml petri dish. Pipette the bone marrow to dissociate the bone marrow cells. Centrifuge and add 1× Red Cell lysis buffer to the pellet. Let RBC lyse for 2 min then add equal amount of complete DMEM and centrifuge. The bone marrow from one mouse can be divided into 2 petri dishes containing 7 ml of BMM media (DMEM+20% FBS+1% Pen/Strep+50 ng/ml M-CSF). […] The cells are ready for polarization on day 6. […]

[5] = biological target: PGP (Homo sapiens (Human), UniProt P08183); test: PGP efflux; type: in vitro ADME
Sequence of PGP (P08183 whole entry, species assumed): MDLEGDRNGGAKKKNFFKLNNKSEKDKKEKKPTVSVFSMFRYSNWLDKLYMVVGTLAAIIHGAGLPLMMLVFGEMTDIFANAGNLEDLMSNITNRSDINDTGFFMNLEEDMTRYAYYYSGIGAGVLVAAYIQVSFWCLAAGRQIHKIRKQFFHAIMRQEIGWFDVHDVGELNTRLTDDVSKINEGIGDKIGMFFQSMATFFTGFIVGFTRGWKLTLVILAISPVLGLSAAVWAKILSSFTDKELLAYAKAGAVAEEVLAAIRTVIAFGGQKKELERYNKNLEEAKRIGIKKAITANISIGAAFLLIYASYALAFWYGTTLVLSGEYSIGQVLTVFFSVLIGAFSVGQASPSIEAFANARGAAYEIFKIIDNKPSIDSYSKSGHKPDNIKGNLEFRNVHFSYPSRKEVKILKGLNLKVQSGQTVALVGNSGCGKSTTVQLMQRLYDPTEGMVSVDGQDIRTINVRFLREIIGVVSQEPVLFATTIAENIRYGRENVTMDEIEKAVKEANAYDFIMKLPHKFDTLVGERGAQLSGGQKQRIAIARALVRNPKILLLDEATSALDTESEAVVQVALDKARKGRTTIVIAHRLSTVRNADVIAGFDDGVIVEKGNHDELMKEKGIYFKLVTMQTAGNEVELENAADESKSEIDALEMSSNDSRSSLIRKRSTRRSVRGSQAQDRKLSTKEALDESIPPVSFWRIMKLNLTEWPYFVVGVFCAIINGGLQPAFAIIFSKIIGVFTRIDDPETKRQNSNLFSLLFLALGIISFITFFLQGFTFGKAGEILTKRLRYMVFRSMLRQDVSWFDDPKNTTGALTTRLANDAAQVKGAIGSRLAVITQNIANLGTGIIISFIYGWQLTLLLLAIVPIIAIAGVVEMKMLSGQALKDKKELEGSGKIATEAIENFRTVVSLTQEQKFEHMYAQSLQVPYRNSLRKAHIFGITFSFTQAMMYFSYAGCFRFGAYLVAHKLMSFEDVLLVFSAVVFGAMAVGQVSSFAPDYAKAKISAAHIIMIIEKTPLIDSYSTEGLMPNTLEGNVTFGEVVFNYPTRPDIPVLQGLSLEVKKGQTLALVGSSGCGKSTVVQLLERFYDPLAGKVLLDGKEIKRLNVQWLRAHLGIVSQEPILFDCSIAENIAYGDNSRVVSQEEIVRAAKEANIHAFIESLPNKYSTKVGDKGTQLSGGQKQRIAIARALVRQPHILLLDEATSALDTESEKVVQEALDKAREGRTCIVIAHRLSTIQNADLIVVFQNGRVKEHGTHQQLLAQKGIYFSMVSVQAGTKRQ

[6] = Cellular membrane permeability; type: in vitro ADME
Excerpt: These properties indicate the compound's suitability for in vivo administration.

[7] = tested on: 4T1 breast cancer; test: Subcutaneous 4T1 breast cancer model; type: in vivo
[8] = tested on: GL-261; test: GL-261 glioma model with or without temozolomide; type: in vivo, mouse
Procedure: TMZ was dosed IP 1×/day for 7 days.
Animals: C57 Albino mice (male) from Jackson Labs, n=80. Parameters Evaluated:
In life: Mice were dosed QD with Compound BB. Temozolomide was dosed QD IP, for 7 days. Tumor measurements and bodyweights were taken 2×/week, but caliper and xenogen measurements.
End point analysis: Tumors were cut in half. One half was cut in half again with 1/2 fixed in 10% NBF the other was frozen in OCT for frozen sections. The remaining half was processed to single cell suspention and evaluated by FACS.
PD satilite group—8 mice from the TMZ treated mice and 8 mice from the vehicle treated mice were sacrificed on day 7 post treatment. Tumors were processed to single cell suspention and evaluated by FACS.

[9] = Oral PK in the rat LPS studies (free plasma concentration); type: in vivo; settings: plasma, read-out: Free Plasma Conc
Procedure: This study also includes assessment of the exposure to the compounds in plasma and lung tissues.
Ref C is budesonide p.o. The compound was administered p.o. and about 1 hour later, LPS was administered intra-tracheally and plasma was collected. After about 5 hours, plasma and bronchoalveolar lavage samples were collected.

[10] = tested on: bone marrow cells differentiating into MDSCs; test: Myeloid Derived Suppressor Cell differentiation assay; type: cell-based; settings: FIG. 24A/24B
Procedure: A similar experiment was performed on bone marrow cells differentiating into MDSCs.

[11] = tested on: bone marrow macrophages; test: RANKL driven differentiation of osteoclasts from bone marrow macrophages; type: cell-based
[12] = Dose-exposure proportionality; settings: in vivo
[13] = tested on: MC38 tumor cells; test: MC38 colon cancer model; type: in vivo, mouse
Procedure: In this model, a syngeneic colon cancer cell line is run subcutaneously. The experimental setup was as follows.
The cell injection volume was 0.05 ml per mouse. When tumors reached an average size of 80-100 mm^3, a pair match was made and treatment began. The tumor was measured by caliper biweekly.
The dosing volume was 5 mL/kg.
For all animals, blood was collected by terminal cardiac puncture under isoflurane anesthesia. The blood was processed for plasma. In addition, tumor samples were collected.
At study end, tumors were isolated, fixed in 10% neutral buffered formalin and embedded in paraffin for histologic analysis. […] T-cells within the tumor sections were identified utilizing a CD3-specific antibody via automated immunohistochemistry equipment (Ventana). Once stained, slides were digitalized via Aperio slide scanning equipment. Next, stained tumor sections were quantified via Definians software to assess the percentage of CD3 positive cells within each tumor.

[14] = tested on: M2 macrophage markers VEGF and ARG-1; test: M2 macrophage marker expression with or without PDL-1 antibody (FIG. 42)
[15] = Unbound concentrations in tumor and plasma, LLC model, 12 days daily oral administration; type: in vivo, mouse; settings: Plasma, 12 days daily oral administration in NMP solution, read-out: Free Conc
Excerpt: Below is a table of details:

## C[C@H](NC(=O)c1c(N)nn2cccnc12)c1cc2cccc(C#Cc3cnn(C)c3)c2c(=O)n1-c1ccccc1 [Compound BB]
[1]
  CD206+M2 polarized suppressive macrophages: reduces
  TAMs: decreased
[2]
  MDSC expansion after cyclophosphamide treatment: decreased
[3]
  half-life: > 240 min
[4]
  M2 TAM differentiation (ARG1 levels): inhibited M2 TAM differentiation much more effectively than PI3K-δ inhibitor
[5]
  PGP efflux@ 10 uM: No
[6]
  cellular membrane permeability: high cellular membrane permeability
[6]; 10 uM
  Papp [10−6 cm/s] @ 10 uM: High
[7]
  single agent activity: demonstrated single agent activity
[7]; co-administration with docetaxel, paclitaxel, or 5-FU
  tumor growth: achieved a further reduction in tumor growth
[8]; 15 mg/kg QD PO following TMZ @ 1 mg/kg
  tumor volume, GL-261, compared to vehicle: significant reduction in tumor volume
[8]; treated from the start of treatment, 15 mg/kg QD PO
  tumor volume, GL-261, compared to vehicle: significant reduction in tumor volume
[9]; oral, p.o. 0.5 mg/kg, 1.5h (time of LPS challenge)
  concentration at 1.5 h: 2.1 nM
[9]; oral, p.o. 0.5 mg/kg, 5.5h (approximately 4 hours post LPS challenge)
  concentration at […]: 2.6 nM
[9]; po, p.o. 1.5 mg/kg, 1.5h
  concentration at 1.5 h: 5.2 nM
[9]; po, p.o. 1.5 mg/kg, 5.5h
  concentration at […]: 5.4 nM
[9]; po, p.o. 5 mg/kg, 1.5h
  concentration at 1.5 h: 22.6 nM
[9]; po, p.o. 5 mg/kg, 5.5h
  concentration at […]: 24.7 nM
[10]
  VEGF and ARG1 in MDSC differentiation assay: suppressed
[11]
  RANKL driven differentiation of osteoclasts: prevents
[12]
  dose-exposure proportionality: exhibits dose-exposure proportionality
[13]; MC38 tumors vs vehicle, IHC
  intratumoral CD3+ T cells: significantly more intratumoral CD3+T cells
[13]; monotherapy, FIG. 29A
  tumor growth, MC38 colon cancer model: significantly inhibited tumor growth
[14]
  M2 macrophage marker ARG-1: reduced
  M2 macrophage marker VEGF: reduced
[15]; C57 Albino, mouse, 3 mg/kg, 2 h
  concentration at 2 h: 25.9 nM
[15]; C57 Albino, mouse, 7.5 mg/kg, 2 h
  concentration at 2 h: 99 nM
[15]; C57 Albino, mouse, 15 mg/kg, 2 h
  concentration at 2 h: 157 nM
[15]; 3 mg/kg, Trough
  concentration at 2 h: 0.75 nM
[15]; 7.5 mg/kg, Trough
  concentration at 2 h: 8.99 nM
[15]; 15 mg/kg, Trough
  concentration at 2 h: 8.39 nM

Reference: US9775844B2, “Heterocyclic compounds and uses thereof” (Infinity Pharmaceuticals, Inc., priority 2014, dated 2017)
